Columns and labels:
[1] = cited from earlier work
[2] = 24-hour urinary uric acid excretion, open-label fixed-sequence clinical study (NCT01428284); type: in vivo, human; settings: for Increase of mean urinary urate excretion compared to baseline: canagliflozin alone; for Urine urate excretion, Mean / Urine urate excretion, Mean Change from Day−1: healthy subjects, 24-hour urine, canagliflozin 300 mg once daily from Day 1
Description: (§1) A single-center, open-label, fixed-sequence study to assess the effects of multiple-dose probenecid on multiple-dose of canagliflozin, in healthy subjects, was completed as described below (study NCT01428284) on clinicaltrials.gov registry website). The study consisted of 3 phases: (1) a Screening Phase of approximately 19 days (Day −21 to Day −3), (2) an Open-label Treatment Phase of 20 days (Day −2 to Day 18), and (3) a Follow-up phase (7 to 10 days after discharge on Day 18). The total duration of the study was approximately 49 days.
(§2) Subjects with history of (or current) any of the following medical conditions were excluded: (a) Acute or chronic renal insufficiency (eGFR below 90 mL/min/1.73 m^2); (b) Kidney or bladder stones (nephrolithiasis); (c) Hyperuricosuria (>800 mg/day), or gout; and/or (d) Hyperuricemia (>6.8 mg/dL, 404 μmol/L). Reasons for subject withdrawal from the study could include the following: (a) Lost to follow-up; (b) Withdrawal of consent; (c) Withdrawal of consent for pharmacogenomic research (Part 1); (d) Subject was not in compliance with requirements of the study and prohibitions and restrictions; and/or (e) A subject could be discontinued from study treatment (final assessments were to be obtained) if the investigator believed that for safety reasons (eg, adverse event) it was in the best interest of the subject to stop study treatment.
(§3) All study drugs were taken between 7:30 and 9:30 a.m. with 240 mL of noncarbonated water. Study drug was swallowed whole and not chewed, divided, dissolved or crushed. […] For each subject, on days when both canagliflozin and probenecid were administered, both doses were administered at approximately the same time.
(§4) Canagliflozin was administered as a single 300-mg tablet on Days 1 to Day 17. Probenecid was administered b.i.d. as one 500-mg tablet from Day 15 to Day 17. On Day 14 and Day 17, subjects received study drug under fasted conditions, and standardized lunch approximately 4 hours after study drug administration. On all other study days, subjects received canagliflozin and/or probenecid 1 hour before they received a standardized meal. The study diet was standardized by the site dietician in order to minimize the effect on uric acid levels. Subjects were also advised not to consume high purine-enriched foods from screening to completion of the study.
(§5) All laboratory testing was conducted by a licensed clinical laboratory (Physicians Reference Laboratory [PRL]), 7800 West 110th Street, Overland Park, Kans. 66210-2304). Clinical laboratory tests included, among others:
(b) Urinary uric acid excretion: A 24-hour total urine was collected at the time points specified in the Time and Events Schedule of the study protocol. The samples were mixed thoroughly and stored between 2° C. and 8° C. until shipment.
(§6) Laboratory data were summarized by type of laboratory test. Normal reference ranges and abnormal results were used in the summary of laboratory data. Descriptive statistics were calculated for each laboratory analyte at baseline, Day 18, and end-of-study.
Table 2, below, lists mean urine uric acid excretion and calculated mean changes through the course of the study. FIG. 2 illustrates said mean uric acid excretion (±standard deviation) as a function of study day.

[3] = Fasting serum urate levels, open-label fixed-sequence clinical study (NCT01428284); type: in vivo, human; settings: for Decrease of mean serum urate level from baseline: canagliflozin alone; for Serum urate level, Mean / Serum urate level, Mean Decrease: healthy subjects, canagliflozin 300 mg once daily from Day 1
Description: as §1, §2, §3, §4, §5
(a) Serum chemistry: glucose, creatinine, blood urea nitrogen (BUN), total protein, total bilirubin, phosphate, albumin, calcium, fasting serum uric acid, sodium, potassium, chloride, magnesium, lactic acid dehydrogenase, alkaline phosphatase, alanine transaminase, aspartate transaminase, gamma-glutamyltransferase, bicarbonate, creatine phosphokinase, total cholesterol (screening only), and triglycerides (screening only); and
as §6
Table 1, below lists mean serum urate levels and calculated mean decrease through the course of the study. […] FIG. 1 illustrates said mean serum urate levels (±standard deviation) as a function of study day.

Oc1ncnc2[nH]ncc12 [Allopurinol]
Patients with side-effects [1]: up to 20%

Cc1ccc([C@@H]2O[C@H](CO)[C@@H](O)[C@H](O)[C@H]2O)cc1Cc1ccc(-c2ccc(F)cc2)s1 [canagliflozin]
Increase of mean urinary urate excretion compared to baseline ([2]; Day 1): approximately 19%
Increase of mean urinary urate excretion compared to baseline ([2]; Day 2): ~6%
Increase of mean urinary urate excretion compared to baseline ([2]; Day 13): ~1%
Urine urate excretion, Mean ([2]; Day 1): 5.068 mmol/day
Urine urate excretion, Mean Change from Day−1 ([2]; Day 1): 0.796 mmol/day
Urine urate excretion, Mean ([2]; Day 2): 4.544 mmol/day
Urine urate excretion, Mean Change from Day−1 ([2]; Day 2): 0.273 mmol/day
Urine urate excretion, Mean ([2]; Day 13): 4.319 mmol/day
Urine urate excretion, Mean Change from Day−1 ([2]; Day 13): 0.048 mmol/day
Urine urate excretion, Mean ([2]; Day 14): 4.208 mmol/day
Urine urate excretion, Mean Change from Day−1 ([2]; Day 14): -0.064 mmol/day
Decrease of mean serum urate level from baseline ([3]; Day 2): approximately 19%
Decrease of mean serum urate level from baseline ([3]; Day 3): ~24%
Decrease of mean serum urate level from baseline ([3]; Day 14): ~23%
Serum urate level, Mean ([3]; Day 1): 293.151 µmol/L
Serum urate level, Mean Decrease ([3]; Day 1): -5.523 µmol/L
Serum urate level, Mean ([3]; Day 2): 241.580 µmol/L
Serum urate level, Mean Decrease ([3]; Day 2): -57.650 µmol/L
Serum urate level, Mean ([3]; Day 3): 228.769 µmol/L
Serum urate level, Mean Decrease ([3]; Day 3): -70.461 µmol/L
Serum urate level, Mean ([3]; Day 14): 229.684 µmol/L
Serum urate level, Mean Decrease ([3]; Day 14): -69.546 µmol/L

Reference: patent publication US20160022632A1, “COMBINATION OF CANAGLIFLOZIN AND PROBENECID FOR THE TREAMENT OF HYPERURICEMIA” (JANSSEN PHARMACEUTICA NV, priority 2013, published 2016)
